This note sets out measurements from article PMC5783810 (Saudi Pharmaceutical Journal : SPJ, 2017).

Broadly, the solubility is the concentration that dissolves in the medium under given conditions. Low values mean a poorly soluble substance, high ones a readily soluble substance.

In brackets after ≈: the same amount, converted by molar mass.

The data set is described as follows: Water solubility. Conditions: for fold increase in water solubility relative to trolox: relative to trolox (0.1 g/L); for solubility at 10 min: water, thermodynamic from solid.

On to “6-Hydroxy-2,5,7,8-tetramethylchromane-2-carboxylate 1-oxyl-2,2,5,5-tetramethylpirrolidin-4-ammonium [2h]”, for which the “fold increase in water solubility relative to trolox” value came out at 20 fold.

On to “6-Hydroxy-2,5,7,8-tetramethylchromane-2-carboxylate 1-oxyl-2,2,6,6-tetramethylpiperidine-4-ammonium [2g]”, for which the “fold increase in water solubility relative to trolox” value was found to be 10 fold.

Regarding “6-Hydroxy-2,5,7,8-tetramethylchromane-2-carboxylate, 1-(1H-indol-3-yl)-N,N-dimetilmetanammonium [2q]”, the “fold increase in water solubility relative to trolox” value was 20–590 fold.

Regarding “6-Hydroxy-2,5,7,8-tetramethylchromane-2-carboxylate, 3-(3,4-dimethoxybenzoate)-8-ammoniybicyclo[3.2.1]octane [2m]”, the “fold increase in water solubility relative to trolox” value is given as 20–590 fold.

For “6-Hydroxy-2,5,7,8-tetramethylchromane-2-carboxylate, 4-(N-acetylantranoiloxy)-8,9-dihydroxy-1α,14α,16β-trimethoxy-N-ethylammonium-18-norakonan [2p]”, the “fold increase in water solubility relative to trolox” value was 20–590 fold.

Consider `Cc1c(C)c2c(c(C)c1O)CCC(C)(C(=O)O)O2.O=c1cccc2n1CC1CNCC2C1` (stereo not drawn) [2l, 6-Hydroxy-2,5,7,8-tetramethylchromane-2-carboxylate, 1,2,3,4,5,6-hexahydro-1,5-methano-8H-pyridinium-[1,2-α][1,5]-diazotsin-8-one], for which the “fold increase in water solubility relative to trolox” value is 20–590 fold.

As to `CCN(CC)CC.Cc1c(C)c2c(c(C)c1O)CCC(C)(C(=O)O)O2` (centres unmarked) [2n, 6-Hydroxy-2,5,7,8-tetramethylchromane-2-carboxylate, triethylammonium], the solubility at 10 min is 3000 µg/mL.

`Cc1c(C)c2c(c(C)c1O)CCC(C)(C(=O)O)O2` (centres unmarked) [compound 1, 6-hydroxy-2,5,7,8-tetra methyl chromane-2-carboxylic acid, reference compound] showed a solubility at 10 min of 100 µg/mL (≈ 400 µM).
